Results published in article PMC11460631, “Inhibition of transient receptor potential vanilloid 3 channels by antimalarial hydroxychloroquine alleviates TRPV3-dependent dermatitis” (The Journal of Biological Chemistry, 2024).

Columns and labels:
mTRPV4 = target: T1, mTRPV4 (Mus musculus, UniProt Q9EPK8); experiment: Whole-cell current recordings, mTRPV4; assay type: cell-based, murine; conditions: 100 μM HCQ; current activated by 1 μM GSK1016790A
T1 construct: YFP or GFP; expressed in transfected cells; host or cells: HEK293T
Protocol: To elucidate the specificity of HCQ inhibition on TRPV3, we conducted whole-cell current recordings on other known pruritus-related TRP channels, such as hTRPA1, mTRPV1, mTRPV4, and mTRPM8 (Fig. 3, A and F). […] Because of the relatively larger inhibition of HCQ on mTRPM8 current, we tested the concentration dependence of HCQ on mTRPM8 channels.
HEK293T cells are cultured using Dulbecco's modified Eagle's medium containing 10% fetal bovine serum and 1% penicillin-streptomycin in a cell incubator with 5% CO2 at 37 °C. Plasmids of murine TRPV1, TRPV4, TRPM8, and human TRPV3, TRPA1 are labeled with YFP or GFP as indicators for subsequent electrophysiological recordings. Complementary DNA constructs of ion channels were transiently transfected with Lipofectamine 3000 (Invitrogen). And 12 to 18 h after transient transfection, electrophysiological recordings were performed.
Patch-clamp recordings were carried out with a HEKA EPC10 amplifier controlled by PatchMaster software (HEKA; https://www.heka.com/products/products_main.html#soft_pm) ([36]). Patch pipettes were prepared from borosilicate glass and fire-polished to the resistance of 3 to 8 MΩ by P-97 puller for whole-cell recordings. For single-channel recordings, patch pipettes were fire-polished to a higher resistance of 6 to 10 MΩ. […]

TRPV3 Y594F mutation = target: T2, TRPV3 Y594F mutation (Homo sapiens, UniProt Q8NET8, Y594F); experiment: Whole-cell recording of TRPV3 Y594F mutant; assay type: cell-based; conditions: 1 mM 2-APB, ± 80 mV
T2 construct: YFP or GFP; expressed in transfected cells; host or cells: HEK293T
T2 sequence (Q8NET8 1-790 Y594F): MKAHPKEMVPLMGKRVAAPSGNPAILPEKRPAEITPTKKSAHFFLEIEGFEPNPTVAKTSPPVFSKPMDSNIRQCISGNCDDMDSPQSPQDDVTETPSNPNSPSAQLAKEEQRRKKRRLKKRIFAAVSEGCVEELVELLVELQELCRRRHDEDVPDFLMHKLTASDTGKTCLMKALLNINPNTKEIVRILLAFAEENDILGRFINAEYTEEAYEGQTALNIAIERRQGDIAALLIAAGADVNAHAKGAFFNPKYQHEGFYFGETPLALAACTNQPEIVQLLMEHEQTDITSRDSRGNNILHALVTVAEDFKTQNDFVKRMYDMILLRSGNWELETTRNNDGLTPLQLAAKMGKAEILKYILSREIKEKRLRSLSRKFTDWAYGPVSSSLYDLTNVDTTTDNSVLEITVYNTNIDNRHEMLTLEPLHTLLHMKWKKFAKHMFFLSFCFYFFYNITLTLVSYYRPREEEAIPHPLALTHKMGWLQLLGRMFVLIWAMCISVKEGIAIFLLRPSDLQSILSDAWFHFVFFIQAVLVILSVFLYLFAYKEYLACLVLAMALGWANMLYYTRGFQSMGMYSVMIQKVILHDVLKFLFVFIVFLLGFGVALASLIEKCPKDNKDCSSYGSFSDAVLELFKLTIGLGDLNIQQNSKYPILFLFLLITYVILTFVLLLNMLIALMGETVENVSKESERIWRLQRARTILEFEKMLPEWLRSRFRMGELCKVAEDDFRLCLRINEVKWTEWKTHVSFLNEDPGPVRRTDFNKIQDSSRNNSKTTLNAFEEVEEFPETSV
From the text: As we mentioned above, HCQ may act as a pore blocker of TRPV3. To probe the binding configuration of HCQ to TRPV3, we carried out molecular docking using Rosetta suite (https://rosettacommons.org) ([21]) and validated the docking models with point mutations in TRPV3 (Fig. 4A). […] Furthermore, when we introduced L670A to L591A mutant, we also observed a left shift on the concentration–response curve on this double mutant as compared to L591A mutant (Fig. 4H).
Figure 4 Residues of the pore domain are critical for HCQ inhibition on TRPV3.A, left panel, docking model of HCQ to the pore domain of TRPV3 structure (6uw4). Right panels, top view and side view of the HCQ-binding pocket. B-J, representative whole-cell recording of TRPV3 and mutants in response to 1 mM 2-APB, the mixture of 1 mM 2-APB and concentration gradients of HCQ with the holding potential of ± 80 mV. K, concentration–response curves of HCQ in WT TRPV3 and mutants (n = 3–5 cells). L, quantification of the inhibitory ratio of HCQ (100 μM) on WT, L591A, and N671Q. […]
All data from whole-cell recordings were analyzed in Igor Pro (WaveMetrics). IC50 values were determined by fitting the Hill equation to concentration-response relationships. […]

T1 sequence (Q9EPK8 whole entry): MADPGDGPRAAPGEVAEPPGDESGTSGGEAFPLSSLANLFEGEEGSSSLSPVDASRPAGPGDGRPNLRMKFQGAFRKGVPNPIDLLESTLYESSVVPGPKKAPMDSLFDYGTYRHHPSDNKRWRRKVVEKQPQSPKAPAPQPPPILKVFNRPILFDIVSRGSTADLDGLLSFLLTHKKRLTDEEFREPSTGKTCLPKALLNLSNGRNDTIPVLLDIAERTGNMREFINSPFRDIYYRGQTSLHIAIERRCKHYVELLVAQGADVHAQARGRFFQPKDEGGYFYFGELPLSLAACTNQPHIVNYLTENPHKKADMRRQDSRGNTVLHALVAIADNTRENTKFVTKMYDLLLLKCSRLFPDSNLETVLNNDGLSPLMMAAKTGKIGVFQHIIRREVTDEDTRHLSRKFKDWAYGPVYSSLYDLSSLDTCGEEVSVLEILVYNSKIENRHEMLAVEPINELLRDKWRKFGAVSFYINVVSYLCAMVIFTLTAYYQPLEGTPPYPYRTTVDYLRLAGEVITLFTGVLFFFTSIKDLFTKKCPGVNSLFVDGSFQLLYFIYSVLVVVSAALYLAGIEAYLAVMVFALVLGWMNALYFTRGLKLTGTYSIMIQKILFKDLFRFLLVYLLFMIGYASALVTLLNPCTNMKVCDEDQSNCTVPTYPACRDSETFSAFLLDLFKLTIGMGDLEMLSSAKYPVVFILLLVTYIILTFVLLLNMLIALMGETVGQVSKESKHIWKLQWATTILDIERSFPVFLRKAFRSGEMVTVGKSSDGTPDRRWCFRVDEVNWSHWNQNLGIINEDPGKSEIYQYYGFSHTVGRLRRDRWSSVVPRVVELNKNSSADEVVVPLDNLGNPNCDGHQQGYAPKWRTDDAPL

reduction of mTRPV4 current (mTRPV4): 18.37% ± 11.21%
IC50 (TRPV3 Y594F mutation): 34.8 ± 1.59 µM
SMILES: CCN(CCO)CCCC(C)Nc1ccnc2cc(Cl)ccc12 (centres unmarked) [HCQ, hydroxychloroquine]
